Assay results taken from PubChem BioAssay AID1963967 (Molecular Pharmacology Branch, DTP, NCI, 2024).

System: 855422-203-R-J1-PDC spheroids with HUVEC/MSC, viability
Assay: Anticancer human tumor 855422-203-R-J1-PDC patient-derived bladder carcinoma cell line growth inhibition [PI3K]
Settings: for IC50: curve of first compound; for viability, T/C: stronger effect = lower value
Outline: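 Complex 3D spheroids (cancer cells + endothelial HUVEC + mesenchymal stem cells); drug pairs of targeted agent x inavolisib/alpelisib/duvelisib/copanlisib; half-log series from ~Cmax, max 10 microM if Cmax unknown; endpoint viability.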
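Further: agents incubated with spheroids for one week before read-out.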
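Wherever viability, T/C is given: 100% = DMSO vehicle-treated control wells.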

**Q.** Which results are given for `Cn1ncc(Cl)c1-c1cc(C(=O)NC(CN)Cc2cccc(F)c2)sc1Cl` (centres undefined) + COc1c(OCCCN2CCOCC2)ccc2c3n(c(=NC(=O)c4cnc(N)nc4)nc12)CCN3?
**A.** IC50 (second compound 0.00316 µM): 728 nM; IC50 (second compound 0.01 µM): 624 nM; IC50 (second compound 0.0316 µM): 178 nM; IC50 (second compound 0.1 µM): < 31.6 nM; IC50 (second compound 0.316 µM): < 31.6 nM; IC50 (second compound 1 µM): < 31.6 nM; viability, T/C (second compound 0.00316 µM, first compound 0.0316 µM): 88.5%; viability, T/C (second compound 0.00316 µM, first compound 0.1 µM): 73.7%; viability, T/C (second compound 0.00316 µM, first compound 0.316 µM): 63.2%; viability, T/C (second compound 0.00316 µM, first compound 1 µM): 45.5%; viability, T/C (second compound 0.00316 µM, first compound 3.16 µM): 26.9%; viability, T/C (second compound 0.00316 µM, first compound 10 µM): 6.73%; viability, T/C (second compound 0.01 µM, first compound 0.0316 µM): 77.8%; viability, T/C (second compound 0.01 µM, first compound 0.1 µM): 69.8%; viability, T/C (second compound 0.01 µM, first compound 0.316 µM): 62%; viability, T/C (second compound 0.01 µM, first compound 1 µM): 42.7%; viability, T/C (second compound 0.01 µM, first compound 3.16 µM): 19.6%; viability, T/C (second compound 0.01 µM, first compound 10 µM): 5.83%; viability, T/C (second compound 0.0316 µM, first compound 0.0316 µM): 60.7%; viability, T/C (second compound 0.0316 µM, first compound 0.1 µM): 54.4%; viability, T/C (second compound 0.0316 µM, first compound 0.316 µM): 45.2%; viability, T/C (second compound 0.0316 µM, first compound 1 µM): 29.4%; viability, T/C (second compound 0.0316 µM, first compound 3.16 µM): 13%; viability, T/C (second compound 0.0316 µM, first compound 10 µM): 3.13%; viability, T/C (second compound 0.1 µM, first compound 0.0316 µM): 27.6%; viability, T/C (second compound 0.1 µM, first compound 0.1 µM): 27.3%; viability, T/C (second compound 0.1 µM, first compound 0.316 µM): 19.7%; viability, T/C (second compound 0.1 µM, first compound 1 µM): 15.4%; viability, T/C (second compound 0.1 µM, first compound 3.16 µM): 7.63%; viability, T/C (second compound 0.1 µM, first compound 10 µM): 0.88%; viability, T/C (second compound 0.316 µM, first compound 0.0316 µM): 8.42%; viability, T/C (second compound 0.316 µM, first compound 0.1 µM): 7.12%; viability, T/C (second compound 0.316 µM, first compound 0.316 µM): 8.39%; viability, T/C (second compound 0.316 µM, first compound 1 µM): 7.12%; viability, T/C (second compound 0.316 µM, first compound 3.16 µM): 4.22%; viability, T/C (second compound 0.316 µM, first compound 10 µM): 0.34%; viability, T/C (second compound 1 µM, first compound 0.0316 µM): 3.34%; viability, T/C (second compound 1 µM, first compound 0.1 µM): 4.22%; viability, T/C (second compound 1 µM, first compound 0.316 µM): 3.37%; viability, T/C (second compound 1 µM, first compound 1 µM): 4.04%; viability, T/C (second compound 1 µM, first compound 3.16 µM): 1.54%; viability, T/C (second compound 1 µM, first compound 10 µM): 1.32%

**Q.** How did the IC50 (second compound 0.0316 µM) turn out when `Cn1cnc2c(F)c(Nc3ccc(Br)cc3Cl)c(C(=O)NOCCO)cc21` + Cc1nc(NC(=O)N2CCCC2C(N)=O)sc1-c1ccnc(C(C)(C)C(F)(F)F)c1 was run?
**A.** 2250 nM

**Q.** What about the IC50 (second compound 0.1 µM) of the same compound?
**A.** 2580 nM

**Q.** What about the IC50 (second compound 0.316 µM) of the same compound?
**A.** 1350 nM

**Q.** What about the IC50 (second compound 1 µM) of the same compound?
**A.** 111 nM

**Q.** What about the IC50 (second compound 3.16 µM) of the same compound?
**A.** < 9.49 nM

**Q.** And the IC50 (second compound 10 µM)?
**A.** < 9.49 nM

**Q.** And the viability, T/C (second compound 0.0316 µM, first compound 0.00949 µM)?
**A.** 94%

**Q.** And the viability, T/C (second compound 0.0316 µM, first compound 0.03 µM)?
**A.** 79.5%

**Q.** And the viability, T/C (second compound 0.0316 µM, first compound 0.0949 µM)?
**A.** 116%

**Q.** And the viability, T/C (second compound 0.0316 µM, first compound 0.3 µM)?
**A.** 90.4%

**Q.** And the viability, T/C (second compound 0.0316 µM, first compound 0.949 µM)?
**A.** 82.1%

**Q.** What about the viability, T/C (second compound 0.0316 µM, first compound 3 µM) of the same compound?
**A.** 39.2%

**Q.** What about the viability, T/C (second compound 0.1 µM, first compound 0.00949 µM) of the same compound?
**A.** 96.6%

**Q.** And the viability, T/C (second compound 0.1 µM, first compound 0.03 µM)?
**A.** 92.9%

**Q.** And the viability, T/C (second compound 0.1 µM, first compound 0.0949 µM)?
**A.** 89.8%

**Q.** And the viability, T/C (second compound 0.1 µM, first compound 0.3 µM)?
**A.** 82.1%

**Q.** What about the viability, T/C (second compound 0.1 µM, first compound 0.949 µM) of the same compound?
**A.** 79.4%

**Q.** And the viability, T/C (second compound 0.1 µM, first compound 3 µM)?
**A.** 45.1%

**Q.** What about the viability, T/C (second compound 0.316 µM, first compound 0.00949 µM) of the same compound?
**A.** 85.9%

**Q.** What about the viability, T/C (second compound 0.316 µM, first compound 0.03 µM) of the same compound?
**A.** 78%

**Q.** What about the viability, T/C (second compound 0.316 µM, first compound 0.0949 µM) of the same compound?
**A.** 89.9%

**Q.** And the viability, T/C (second compound 0.316 µM, first compound 0.3 µM)?
**A.** 75.7%

**Q.** And the viability, T/C (second compound 0.316 µM, first compound 0.949 µM)?
**A.** 61.6%

**Q.** What about the viability, T/C (second compound 0.316 µM, first compound 3 µM) of the same compound?
**A.** 25%

**Q.** What about the viability, T/C (second compound 1 µM, first compound 0.00949 µM) of the same compound?
**A.** 53.1%

**Q.** What about the viability, T/C (second compound 1 µM, first compound 0.03 µM) of the same compound?
**A.** 59.4%

**Q.** What about the viability, T/C (second compound 1 µM, first compound 0.0949 µM) of the same compound?
**A.** 45.1%

**Q.** And the viability, T/C (second compound 1 µM, first compound 0.3 µM)?
**A.** 44.3%

**Q.** And the viability, T/C (second compound 1 µM, first compound 0.949 µM)?
**A.** 36.2%

**Q.** And the viability, T/C (second compound 1 µM, first compound 3 µM)?
**A.** 10.2%

**Q.** And the viability, T/C (second compound 3.16 µM, first compound 0.00949 µM)?
**A.** 33.7%

**Q.** And the viability, T/C (second compound 3.16 µM, first compound 0.03 µM)?
**A.** 32.9%

**Q.** And the viability, T/C (second compound 3.16 µM, first compound 0.0949 µM)?
**A.** 21.7%

**Q.** What about the viability, T/C (second compound 3.16 µM, first compound 0.3 µM) of the same compound?
**A.** 21.2%

**Q.** What about the viability, T/C (second compound 3.16 µM, first compound 0.949 µM) of the same compound?
**A.** 16%

**Q.** What about the viability, T/C (second compound 3.16 µM, first compound 3 µM) of the same compound?
**A.** 6%

**Q.** What about the viability, T/C (second compound 10 µM, first compound 0.00949 µM) of the same compound?
**A.** 22.9%

**Q.** And the viability, T/C (second compound 10 µM, first compound 0.03 µM)?
**A.** 11.8%

**Q.** And the viability, T/C (second compound 10 µM, first compound 0.0949 µM)?
**A.** 12.7%

**Q.** What about the viability, T/C (second compound 10 µM, first compound 0.3 µM) of the same compound?
**A.** 8.91%

**Q.** What about the viability, T/C (second compound 10 µM, first compound 0.949 µM) of the same compound?
**A.** 5.5%

**Q.** What about the viability, T/C (second compound 10 µM, first compound 3 µM) of the same compound?
**A.** 1.88%
